# Source: ChEMBL document CHEMBL4842348 (J Med Chem, 2021)
# Columns and labels:
# [1] = MRT in CD1 mouse at 1 mg/kg, iv and 2 mg/kg, po; type: ADME, organism-based; conditions: in vivo
# [2] = Clearance in CD1 mouse at 1 mg/kg, iv and 2 mg/kg, po; type: ADME, organism-based; conditions: in vivo
# [3] = Volume of distribution at steady state in CD1 mouse at 1 mg/kg, iv and 2 mg/kg, po; type: ADME, organism-based; conditions: in vivo, read-out: Vdss
# [4] = Bioavailability in CD1 mouse at 1 mg/kg, iv and 2 mg/kg, po; type: ADME, organism-based; conditions: in vivo
# [5] = Terminal half life in CD1 mouse at 1 mg/kg, iv; type: ADME, organism-based; conditions: in vivo, read-out: beta t1/2 (converted)
# [6] = Cmax in CD1 mouse at 2 mg/kg, po; type: ADME, organism-based; set-up: route oral, dose 2 mg/kg; conditions: in vivo
# [7] = Tmax in CD1 mouse at 2 mg/kg, po; type: ADME, organism-based; conditions: in vivo
# [8] = AUC (0 to infinitive) in CD1 mouse at 2 mg/kg, po; type: ADME, organism-based; set-up: route oral, time infinity, dose 2 mg/kg; conditions: in vivo
# [9] = Plasma clearance in WH rat at 1 mg/kg, iv; type: ADME, organism-based
# [10] = Volume of distribution at steady state in WH rat at 1 mg/kg, iv; type: ADME, organism-based; conditions: in vivo, read-out: Vdss
# [11] = Terminal half life in WH rat at 1 mg/kg, iv; type: ADME, organism-based; conditions: in vivo, read-out: beta t1/2 (converted)
# [12] = Cmax in WH rat at 2 mg/kg, po; type: ADME, organism-based; set-up: route oral, dose 2 mg/kg; conditions: in vivo
# [13] = Tmax in WH rat at 2 mg/kg, po; type: ADME, organism-based; conditions: in vivo
# [14] = AUC (0 to infinitive) in WH rat at 2 mg/kg, po; type: ADME, organism-based; set-up: route oral, time infinity, dose 2 mg/kg; conditions: in vivo
# [15] = Oral bioavailability in WH rat at 2 mg/kg; type: ADME, organism-based; conditions: in vivo
# [16] = Plasma clearance in Beagle dog at 0.5 mg/kg, iv; type: ADME, organism-based, Canis lupus familiaris
# [17] = Volume of distribution at steady state in Beagle dog at 0.5 mg/kg, iv; type: ADME, organism-based, Canis lupus familiaris; conditions: in vivo, read-out: Vdss
# [18] = Terminal half life in Beagle dog at 0.5 mg/kg, iv; type: ADME, organism-based, Canis lupus familiaris; conditions: in vivo, read-out: beta t1/2 (converted)
# [19] = MRT in Beagle dog at 0.5 mg/kg, iv; type: ADME, organism-based, Canis lupus familiaris; conditions: in vivo
# [20] = Tmax in Beagle dog at 2 mg/kg, po; type: ADME, organism-based, Canis lupus familiaris; conditions: in vivo
# [21] = AUC (0 to infinitive) in Beagle dog at 2 mg/kg, po; type: ADME, organism-based, Canis lupus familiaris; set-up: route oral, time infinity, dose 2 mg/kg; conditions: in vivo
# [22] = Oral bioavailability in Beagle dog at 2 mg/kg; type: ADME, organism-based, Canis lupus familiaris; conditions: in vivo
# [23] = Plasma clearance in rhesus monkey at 0.5 mg/kg, iv; type: ADME, organism-based, Macaca mulatta
# [24] = Volume of distribution at steady state in rhesus monkey at 0.5 mg/kg, iv; type: ADME, organism-based, Macaca mulatta; conditions: in vivo, read-out: Vdss
# [25] = Terminal half life in rhesus monkey at 0.5 mg/kg, iv; type: ADME, organism-based, Macaca mulatta; conditions: in vivo, read-out: beta t1/2 (converted)
# [26] = MRT in […] rhesus monkey at 0.5 mg/kg, iv; type: ADME, organism-based, Macaca mulatta; conditions: in vivo
# [27] = Tmax in rhesus monkey at 2 mg/kg, po; type: ADME, organism-based, Macaca mulatta; conditions: in vivo
# [28] = AUC (0 to infinitive) in rhesus monkey at 2 mg/kg, po; type: ADME, organism-based, Macaca mulatta; set-up: route oral, time infinity, dose 2 mg/kg; conditions: in vivo
# [29] = Oral bioavailability in rhesus monkey at 2 mg/kg; type: ADME, organism-based, Macaca mulatta; conditions: in vivo
# [30] = Half life in NFR-transgenic mouse plasma at 10 mg/kg, po single dose; type: ADME, organism-based
# [31] = Half life in lean wild type mouse plasma at 10 mg/kg, po qd treated for 40 days; type: ADME, organism-based; conditions: time 40 day
# [32] = Half life in lean wild type mouse adipose tissue at 10 mg/kg, po qd treated for 40 days; type: ADME, organism-based; conditions: time 40 day
# [33] = Half life in DIO wild type mouse adipose tissue at 10 mg/kg, po qd treated for 40 days; type: ADME, organism-based; conditions: time 40 day
# [34] = Half life in lean NFR-transgenic mouse plasma at 10 mg/kg, po qd treated for 40 days; type: ADME, organism-based; conditions: time 40 day
# [35] = Half life in lean NFR-transgenic mouse liver at 10 mg/kg, po qd treated for 40 days; type: ADME, organism-based; conditions: time 40 day
# [36] = Half life in lean NFR-transgenic mouse adipose tissue at 10 mg/kg, po qd treated for 40 days; type: ADME, organism-based; conditions: time 40 day
# [37] = Terminal half life in DIO NFR-transgenic mouse plasma at 10 mg/kg, po once daily for 14 days; type: ADME, organism-based; conditions: time 14 day, read-out: beta t1/2 (converted)
# [38] = Normalized AUC (0 to 72 hrs) in fasted dog at 1 mg/kg, po in 0.5% methocel; type: ADME, organism-based, Canis lupus familiaris; conditions: in vivo
# [39] = Normalized AUC (0 to 72 hrs) in high fat diet fed dog at 1 mg/kg, po in 0.5% methocel; type: ADME, organism-based, Canis lupus familiaris; conditions: in vivo
# [40] = Normalized AUC (0 to 72 hrs) in high fat diet fed dog at 1 mg/kg, po in Imwitor/Tween; type: ADME, organism-based, Canis lupus familiaris; conditions: in vivo
# [41] = Cmax in fasted dog at 1 mg/kg, po in 0.5% methocel; type: ADME, organism-based, Canis lupus familiaris; set-up: route oral, dose 1 mg/kg; conditions: in vivo
# [42] = Cmax in high fat diet fed dog at 1 mg/kg, po in 0.5% methocel; type: ADME, organism-based, Canis lupus familiaris; set-up: route oral, dose 1 mg/kg; conditions: in vivo
# [43] = Cmax in high fat diet fed dog at 1 mg/kg, po in Imwitor/Tween; type: ADME, organism-based, Canis lupus familiaris; set-up: route oral, dose 1 mg/kg; conditions: in vivo
# [44] = Oral bioavailability in high fat diet fed dog at 1 mg/kg in 0.5% methocel; type: ADME, organism-based, Canis lupus familiaris; conditions: in vivo
# [45] = Oral bioavailability in fasted dog at 1 mg/kg in Imwitor/Tween; type: ADME, organism-based, Canis lupus familiaris; conditions: in vivo
# [46] = Drug recovery in bile duct cannulated single po dosed WH rat assessed as recovered total bile radioactivity; type: ADME, organism-based; conditions: in vivo
# [47] = Drug recovery in bile duct cannulated single po dosed WH rat assessed as recovered glucuronide conjugate in bile relative to total recovery; type: ADME, organism-based; conditions: in vivo
# [48] = Drug recovery in bile duct cannulated single po dosed WH rat assessed as recovered taurine conjugate in bile relative to total recovery; type: ADME, organism-based; conditions: in vivo
# [49] = Drug recovery in bile duct cannulated single po dosed WH rat assessed as recovered parent compound in feces relative to total recovery; type: ADME, organism-based; conditions: in vivo
# [50] = Drug recovery in bile duct cannulated single po dosed WH rat assessed as recovered total urine radioactivity; type: ADME, organism-based; conditions: in vivo
# [51] = Drug recovery in bile duct cannulated single iv dosed WH rat assessed as recovered total feces radioactivity; type: ADME, organism-based; conditions: in vivo
# [52] = Drug recovery in bile duct cannulated single iv dosed WH rat assessed as recovered parent compound in feces relative to total recovery; type: ADME, organism-based; conditions: in vivo
# [53] = Drug recovery in bile duct cannulated single iv dosed WH rat assessed as recovered parent compound in plasma measure at 2 hrs relative to total recovery; type: ADME, organism-based; conditions: in vivo
# [54] = Drug recovery in bile duct cannulated single iv dosed WH rat assessed as recovered glucuronide conjugate in plasma measure at 2 hrs relative to total recovery; type: ADME, organism-based; conditions: in vivo
# [55] = Drug recovery in bile duct cannulated single po dosed rhesus monkey assessed as recovered glucuronide conjugate in bile relative to total recovery; type: ADME, organism-based, Macaca mulatta; conditions: in vivo
# [56] = Drug recovery in bile duct cannulated single po dosed rhesus monkey assessed as recovered taurine conjugate in bile relative to total recovery; type: ADME, organism-based, Macaca mulatta; conditions: in vivo
# [57] = Drug recovery in bile duct cannulated single po dosed rhesus monkey assessed as recovered parent compound in feces relative to total recovery; type: ADME, organism-based, Macaca mulatta; conditions: in vivo
# [58] = Drug recovery in bile duct cannulated single po dosed rhesus monkey assessed as recovered glucuronide conjugate in feces relative to total recovery; type: ADME, organism-based, Macaca mulatta; conditions: in vivo
# [59] = Drug recovery in bile duct cannulated single po dosed rhesus monkey assessed as recovered total urine radioactivity; type: ADME, organism-based, Macaca mulatta; conditions: in vivo
# [60] = Drug recovery in bile duct cannulated single po dosed rhesus monkey assessed as recovered parent compound in plasma measured at 2 hrs relative to total recovery; type: ADME, organism-based, Macaca mulatta; conditions: in vivo
smiles,measurement,setting,value
COc1ncc(-c2ccc(C(=O)O)cc2C)cc1-c1ccc(C(F)(F)F)cc1[C@@H]1CC[C@H]2[C@@H](c3cc(C(F)(F)F)cc(C(F)(F)F)c3)OC(=O)N12,MRT,[1],6 h
same,clearance,[2],2.6 mL/min/kg
same,Vd,[3],0.95 L/kg
same,bioavailability,[4],43%
same,half-life,[5],4.4 h
same,Cmax,[6],430 nM
same,Tmax,[7],2.7 h
same,AUC(0-inf),[8],7.9 µM·h
same,clearance,[9],3.1 mL/min/kg
same,Vd,[10],2.4 L/kg
same,half-life,[11],8.1 h
same,Cmax,[12],400 nM
same,Tmax,[13],4 h
same,AUC(0-inf),[14],9.7 µM·h
same,bioavailability,[15],65%
same,clearance,[16],0.52 mL/min/kg
same,Vd,[17],0.54 L/kg
same,half-life,[18],15 h
same,MRT,[19],18 h
same,Tmax,[20],1.7 h
same,AUC(0-inf),[21],13 µM·h
same,bioavailability,[22],14%
same,clearance,[23],0.39 mL/min/kg
same,Vd,[24],1.3 L/kg
same,half-life,[25],50 h
same,MRT,[26],60 h
same,Tmax,[27],6.7 h
same,AUC(0-inf),[28],11 µM·h
same,bioavailability,[29],8.4%
same,half-life,[30],12 h
same,half-life,[31],0.8 h
same,half-life,[32],0.8 h
same,half-life,[33],86.4 h
same,half-life,[34],288 h
same,half-life,[35],69.6 h
same,half-life,[36],36 h
same,half-life at […],[37],3.8 h
same,AUC/dose,[38],6.5 µM·kg·h/mg
same,AUC/dose,[39],4.2 µM·kg·h/mg
same,AUC/dose,[40],22 µM·kg·h/mg
same,Cmax,[41],500 nM
same,Cmax,[42],300 nM
same,Cmax,[43],1300 nM
same,bioavailability,[44],9%
same,bioavailability,[45],53%
same,Drug recovery,[46],> 99%
same,Drug recovery,[47],> 98%
same,Drug recovery,[48],0%
same,Drug recovery,[49],> 98%
same,Drug recovery,[50],0%
same,Drug recovery,[51],15%
same,Drug recovery,[52],> 98%
same,Drug recovery,[53],> 96%
same,Drug recovery,[54],< 4%
same,Drug recovery,[55],> 96%
same,Drug recovery,[56],3%
same,Drug recovery,[57],95%
same,Drug recovery,[58],5%
same,Drug recovery,[59],7%
same,Drug recovery,[60],> 99%
